{"source": "patent US9340590B2", "about": "(priority 2011, dated 2016)", "assay_in_all_cases": "cell-based", "key": {"hNav1.7": {"target": "hNav1.7 (Homo sapiens, UniProt Q15858)", "sequence (Q15858 whole entry, looked up)": "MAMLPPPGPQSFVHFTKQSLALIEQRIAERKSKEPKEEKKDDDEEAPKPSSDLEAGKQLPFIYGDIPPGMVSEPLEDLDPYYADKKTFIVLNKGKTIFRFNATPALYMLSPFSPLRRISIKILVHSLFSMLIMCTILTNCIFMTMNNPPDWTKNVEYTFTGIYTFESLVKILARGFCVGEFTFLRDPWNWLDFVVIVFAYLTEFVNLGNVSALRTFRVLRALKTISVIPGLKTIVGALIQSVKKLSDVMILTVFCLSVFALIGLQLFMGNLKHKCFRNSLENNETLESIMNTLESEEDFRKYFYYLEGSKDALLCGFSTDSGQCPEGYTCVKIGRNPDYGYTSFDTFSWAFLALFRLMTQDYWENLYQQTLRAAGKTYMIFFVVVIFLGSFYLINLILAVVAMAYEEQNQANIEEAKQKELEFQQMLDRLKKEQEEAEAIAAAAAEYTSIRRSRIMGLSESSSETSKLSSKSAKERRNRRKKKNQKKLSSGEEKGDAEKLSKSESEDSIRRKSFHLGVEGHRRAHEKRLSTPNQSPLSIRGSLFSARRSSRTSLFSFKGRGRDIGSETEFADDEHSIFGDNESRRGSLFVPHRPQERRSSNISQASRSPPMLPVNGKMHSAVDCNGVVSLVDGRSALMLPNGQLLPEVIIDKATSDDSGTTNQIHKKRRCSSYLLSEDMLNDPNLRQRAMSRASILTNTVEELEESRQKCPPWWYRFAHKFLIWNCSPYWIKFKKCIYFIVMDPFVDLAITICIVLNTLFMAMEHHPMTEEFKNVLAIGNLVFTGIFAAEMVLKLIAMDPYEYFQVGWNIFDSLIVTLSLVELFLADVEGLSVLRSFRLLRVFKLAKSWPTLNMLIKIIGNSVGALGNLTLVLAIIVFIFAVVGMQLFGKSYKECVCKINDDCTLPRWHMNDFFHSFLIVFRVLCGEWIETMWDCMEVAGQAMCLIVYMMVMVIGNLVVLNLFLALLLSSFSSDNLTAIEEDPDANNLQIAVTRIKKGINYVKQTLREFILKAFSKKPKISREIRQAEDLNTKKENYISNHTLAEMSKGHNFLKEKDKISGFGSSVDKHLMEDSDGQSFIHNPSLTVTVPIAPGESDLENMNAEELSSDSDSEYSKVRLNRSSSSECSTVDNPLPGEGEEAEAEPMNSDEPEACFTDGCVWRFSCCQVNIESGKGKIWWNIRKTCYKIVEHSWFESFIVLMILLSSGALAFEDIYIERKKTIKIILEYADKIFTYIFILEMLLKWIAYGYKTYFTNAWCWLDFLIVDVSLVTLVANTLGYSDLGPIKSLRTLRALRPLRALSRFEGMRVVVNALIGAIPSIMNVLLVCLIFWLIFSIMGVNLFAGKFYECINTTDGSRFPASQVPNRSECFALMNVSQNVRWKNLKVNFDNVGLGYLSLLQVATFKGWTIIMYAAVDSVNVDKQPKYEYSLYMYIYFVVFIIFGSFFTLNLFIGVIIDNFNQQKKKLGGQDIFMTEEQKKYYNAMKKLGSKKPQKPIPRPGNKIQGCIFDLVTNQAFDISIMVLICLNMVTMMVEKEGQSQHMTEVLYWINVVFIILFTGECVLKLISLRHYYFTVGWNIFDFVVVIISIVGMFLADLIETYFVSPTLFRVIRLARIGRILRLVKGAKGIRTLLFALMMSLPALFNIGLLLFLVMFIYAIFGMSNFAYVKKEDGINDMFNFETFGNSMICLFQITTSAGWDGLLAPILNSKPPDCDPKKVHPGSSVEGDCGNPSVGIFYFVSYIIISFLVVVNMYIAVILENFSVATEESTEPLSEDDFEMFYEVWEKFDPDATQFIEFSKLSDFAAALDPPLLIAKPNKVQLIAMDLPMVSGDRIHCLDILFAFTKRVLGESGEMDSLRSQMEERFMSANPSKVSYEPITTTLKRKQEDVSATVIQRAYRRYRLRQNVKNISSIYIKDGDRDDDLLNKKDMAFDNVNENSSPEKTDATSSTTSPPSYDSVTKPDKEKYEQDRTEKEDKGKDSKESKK", "format": "cell-based", "conditions": "IonWorks Quattro, read-out: IWQ Use Nav1.7"}, "hNav1.5": {"target": "hNav1.5 (Homo sapiens, UniProt Q14524)", "sequence (Q14524 whole entry, looked up)": "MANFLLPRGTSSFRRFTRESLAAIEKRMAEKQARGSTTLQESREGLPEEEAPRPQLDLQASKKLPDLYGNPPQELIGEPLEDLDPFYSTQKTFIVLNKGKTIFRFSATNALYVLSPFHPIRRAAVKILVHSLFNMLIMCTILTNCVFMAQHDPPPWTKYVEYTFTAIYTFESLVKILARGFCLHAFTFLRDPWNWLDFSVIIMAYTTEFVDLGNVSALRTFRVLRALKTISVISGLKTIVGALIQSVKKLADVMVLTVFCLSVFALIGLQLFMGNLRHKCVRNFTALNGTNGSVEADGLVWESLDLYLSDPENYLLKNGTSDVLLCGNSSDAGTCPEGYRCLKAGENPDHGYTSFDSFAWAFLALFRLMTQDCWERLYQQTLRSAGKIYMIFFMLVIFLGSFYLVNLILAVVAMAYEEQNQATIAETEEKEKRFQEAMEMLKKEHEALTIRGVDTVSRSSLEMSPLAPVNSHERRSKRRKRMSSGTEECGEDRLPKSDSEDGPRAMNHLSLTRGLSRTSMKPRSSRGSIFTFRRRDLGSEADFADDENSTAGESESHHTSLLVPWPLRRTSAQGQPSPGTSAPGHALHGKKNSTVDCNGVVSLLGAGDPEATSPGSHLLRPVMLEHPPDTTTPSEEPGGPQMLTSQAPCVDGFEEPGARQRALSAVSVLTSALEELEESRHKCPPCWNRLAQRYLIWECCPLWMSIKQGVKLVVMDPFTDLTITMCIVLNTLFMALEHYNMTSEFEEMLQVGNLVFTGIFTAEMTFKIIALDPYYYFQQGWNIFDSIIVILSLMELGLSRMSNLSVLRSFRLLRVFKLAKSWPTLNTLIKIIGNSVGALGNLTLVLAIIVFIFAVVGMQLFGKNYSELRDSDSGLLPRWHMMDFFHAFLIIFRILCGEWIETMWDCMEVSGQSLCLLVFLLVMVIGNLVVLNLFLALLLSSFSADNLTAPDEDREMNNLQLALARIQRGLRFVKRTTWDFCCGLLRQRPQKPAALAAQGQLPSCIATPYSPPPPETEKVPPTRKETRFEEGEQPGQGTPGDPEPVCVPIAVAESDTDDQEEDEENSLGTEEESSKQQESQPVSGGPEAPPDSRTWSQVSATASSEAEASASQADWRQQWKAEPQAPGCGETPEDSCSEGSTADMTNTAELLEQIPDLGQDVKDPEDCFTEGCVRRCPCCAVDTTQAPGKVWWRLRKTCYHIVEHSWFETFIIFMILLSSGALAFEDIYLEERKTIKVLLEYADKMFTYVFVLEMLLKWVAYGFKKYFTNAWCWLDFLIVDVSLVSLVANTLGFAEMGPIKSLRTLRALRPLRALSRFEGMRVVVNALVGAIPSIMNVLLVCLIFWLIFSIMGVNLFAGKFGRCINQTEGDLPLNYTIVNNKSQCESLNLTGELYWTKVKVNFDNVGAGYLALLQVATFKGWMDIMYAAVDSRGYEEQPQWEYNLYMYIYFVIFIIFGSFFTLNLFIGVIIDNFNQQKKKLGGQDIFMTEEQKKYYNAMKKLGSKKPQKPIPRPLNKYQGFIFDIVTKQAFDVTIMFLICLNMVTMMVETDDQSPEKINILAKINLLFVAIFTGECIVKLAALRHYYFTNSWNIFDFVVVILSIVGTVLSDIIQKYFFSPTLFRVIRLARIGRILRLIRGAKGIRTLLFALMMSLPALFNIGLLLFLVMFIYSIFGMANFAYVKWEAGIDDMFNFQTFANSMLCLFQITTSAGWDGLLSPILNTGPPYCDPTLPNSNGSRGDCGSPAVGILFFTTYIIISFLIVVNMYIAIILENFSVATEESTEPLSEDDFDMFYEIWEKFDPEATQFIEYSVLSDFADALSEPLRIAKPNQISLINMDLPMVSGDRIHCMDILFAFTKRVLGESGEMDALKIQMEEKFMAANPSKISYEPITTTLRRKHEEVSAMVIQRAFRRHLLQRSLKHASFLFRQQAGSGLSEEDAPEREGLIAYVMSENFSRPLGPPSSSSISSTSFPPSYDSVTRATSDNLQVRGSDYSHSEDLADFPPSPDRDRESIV", "conditions": "IonWorks Quattro, read-out: IWQ Use Nav1.5"}, "hNav1.3": {"target": "hNav1.3 (Homo sapiens, UniProt Q9NY46)", "conditions": "IonWorks Quattro, read-out: IWQ Use Nav1.3"}, "[1]": {"conditions": "clamped to −110 mV, depolarized to −10 mV, 5 min after compound, n=2"}}, "note": "Like-named read-outs stand apart in the source and are kept apart here. Positions of bridges follow the written chain, without caps; N, C: chain ends. Non-standard residues stand in square brackets, D forms with d. Residues, ends and D or L forms follow the SMILES beside them. Trp(1-Me) = Cn1cc(C[C@H](N)C(=O)O)c2ccccc21; Pra = C#CC[C@H](N)C(=O)O"}
{"smiles": "CC[C@H](C)[C@@H]1NC(=O)[C@@H]2CSSC[C@@H]3NC(=O)[C@H](C(C)C)NC(=O)[C@H](CC(C)C)NC(=O)[C@H](CC(N)=O)NC(=O)[C@@H]4CCCN4C(=O)[C@H](CCCNC(=N)N)NC(=O)[C@H](CSSC[C@H](NC(=O)[C@@H](N)CC(=O)O)C(=O)N[C@@H](CC(C)C)C(=O)NCC(=O)N[C@@H](C)C(=O)N[C@@H](CCSC)C(=O)N[C@@H](CCCNC(=N)N)C(=O)N[C@@H](CCCCN)C(=O)N2)NC(=O)[C@H](CSSC[C@@H](C(=O)N[C@@H](CCCCN)C(=O)N[C@@H](Cc2ccc(O)cc2)C(=O)N[C@H](C(=O)N[C@@H](Cc2ccccc2)C(N)=O)C(C)C)NC(=O)[C@H](Cc2c[nH]c4ccccc24)NC(=O)[C@H](CO)NC(=O)[C@H](Cc2c[nH]cn2)NC(=O)[C@H]([C@@H](C)O)NC(=O)[C@H](CCCNC(=N)N)NC(=O)[C@H](CO)NC3=O)NC(=O)[C@H](CCCCN)NC(=O)[C@H](CC(=O)O)NC(=O)[C@H](CC(N)=O)NC(=O)[C@H](CC(=O)O)NC(=O)[C@@H]2CCCN2C1=O", "note": "[compound 738] (H-DCLGAMRKCIPDNDKCCRPNLVCSRTHSWCKYVF-NH2; disulfide 2-17, 9-23, 16-30)", "values": [{"measurement": "IC50", "setting": "hNav1.7; use-dependent block, hNav1.7", "value": 0.65, "unit": "µM"}, {"measurement": "IC50", "setting": "hNav1.5; use-dependent block, hNav1.5", "value": 21.9, "unit": "µM"}, {"measurement": "IC50", "setting": "hNav1.3; use-dependent block, hNav1.3", "value": 1.8, "unit": "µM"}]}
{"smiles": "CC[C@H](C)[C@@H]1NC(=O)[C@@H]2CSSC[C@@H]3NC(=O)[C@H](C(C)C)NC(=O)[C@H](CC(C)C)NC(=O)[C@H](CC(N)=O)NC(=O)[C@@H]4CCCN4C(=O)[C@H](CCCNC(=N)N)NC(=O)[C@H](CSSC[C@H](NC(=O)[C@@H](N)CC(=O)O)C(=O)N[C@@H](CC(C)C)C(=O)NCC(=O)N[C@@H](C)C(=O)N[C@@H](Cc4ccccc4)C(=O)N[C@@H](CCCNC(=N)N)C(=O)N[C@@H](CCCCN)C(=O)N2)NC(=O)[C@H](CSSC[C@@H](C(=O)N[C@@H](CCCCN)C(=O)N[C@@H](Cc2ccc(O)cc2)C(=O)N[C@H](C(=O)N[C@@H](Cc2ccccc2)C(=O)O)C(C)C)NC(=O)[C@H](Cc2c[nH]c4ccccc24)NC(=O)[C@H](CCCNC(=N)N)NC(=O)[C@H](Cc2c[nH]cn2)NC(=O)[C@H]([C@@H](C)O)NC(=O)[C@H](CCCNC(=N)N)NC(=O)[C@H](CO)NC3=O)NC(=O)[C@H](CCCCN)NC(=O)[C@H](CC(=O)O)NC(=O)[C@H](CC(=O)O)NC(=O)[C@H](CC(=O)O)NC(=O)[C@@H]2CCCN2C1=O", "note": "[compound 837]", "values": [{"measurement": "IC50", "setting": "hNav1.7; use-dependent block, hNav1.7", "value": "> 5", "unit": "µM"}, {"measurement": "IC50", "setting": "hNav1.5; use-dependent block, hNav1.5", "value": "> 5", "unit": "µM"}, {"measurement": "IC50", "setting": "hNav1.3; use-dependent block, hNav1.3", "value": 2.3, "unit": "µM"}]}
{"smiles": "CC[C@H](C)[C@@H]1NC(=O)[C@@H]2CSSC[C@@H]3NC(=O)[C@H](C(C)C)NC(=O)[C@H](CC(C)C)NC(=O)[C@H](CC(N)=O)NC(=O)[C@@H]4CCCN4C(=O)[C@H](CCCNC(=N)N)NC(=O)[C@H](CSSC[C@H](NC(=O)[C@@H](N)CC(=O)O)C(=O)N[C@@H](CC(C)C)C(=O)NCC(=O)N[C@@H](Cc4ccccc4)C(=O)N[C@@H](CCSC)C(=O)N[C@@H](CCCNC(=N)N)C(=O)N[C@@H](CCCCN)C(=O)N2)NC(=O)[C@H](CSSC[C@@H](C(=O)N[C@@H](CCCCN)C(=O)N[C@@H](Cc2cn(C)c4ccccc24)C(=O)N[C@H](C(=O)N[C@@H](Cc2ccccc2)C(N)=O)C(C)C)NC(=O)[C@H](Cc2c[nH]c4ccccc24)NC(=O)[C@H](CCCCN)NC(=O)[C@H](Cc2c[nH]cn2)NC(=O)[C@H]([C@@H](C)O)NC(=O)[C@H](CCCNC(=N)N)NC(=O)[C@H](CO)NC3=O)NC(=O)[C@H](CCCCN)NC(=O)[C@H](CC(=O)O)NC(=O)[C@H](CC(N)=O)NC(=O)[C@H](CC(=O)O)NC(=O)[C@@H]2CCCN2C1=O", "note": "[compound 246] (H-DCLGFMRKCIPDNDKCCRPNLVCSRTHKWCK[Trp(1-Me)]VF-NH2; disulfide 2-17, 9-23, 16-30)", "values": [{"measurement": "IC50", "setting": "hNav1.7; Table 25, use, […]", "value": 0.06, "unit": "µM"}, {"measurement": "IC50", "setting": "hNav1.5; Table 25, use, […]", "value": 14.4, "unit": "µM"}, {"measurement": "IC50", "setting": "hNav1.3; Table 25, use, […]", "value": 0.03, "unit": "µM"}]}
{"smiles": "CC[C@H](C)[C@@H]1NC(=O)[C@@H]2CSSC[C@@H]3NC(=O)[C@H](C(C)C)NC(=O)[C@H](CC(C)C)NC(=O)[C@H](CC(N)=O)NC(=O)[C@@H]4CCCN4C(=O)[C@H](CCCNC(=N)N)NC(=O)[C@H](CSSC[C@H](NC(=O)[C@@H](N)CC(=O)O)C(=O)N[C@@H](CC(C)C)C(=O)NCC(=O)N[C@@H](Cc4ccc(C(=O)O)cc4)C(=O)N[C@@H](CCSC)C(=O)N[C@@H](CCCNC(=N)N)C(=O)N[C@@H](CCCCN)C(=O)N2)NC(=O)[C@H](CSSC[C@@H](C(=O)N[C@@H](CCCCN)C(=O)N[C@@H](Cc2ccc(O)cc2)C(=O)N[C@H](C(=O)N[C@@H](Cc2ccccc2)C(N)=O)C(C)C)NC(=O)[C@H](Cc2c[nH]c4ccccc24)NC(=O)[C@H](CCCCN)NC(=O)[C@H](Cc2c[nH]cn2)NC(=O)[C@H]([C@@H](C)O)NC(=O)[C@H](CCCNC(=N)N)NC(=O)[C@H](CO)NC3=O)NC(=O)[C@H](CCCCN)NC(=O)[C@H](CC(=O)O)NC(=O)[C@H](CC(N)=O)NC(=O)[C@H](CC(=O)O)NC(=O)[C@@H]2CCCN2C1=O", "note": "[SEQ ID NO: 276]", "values": [{"measurement": "IC50", "setting": "hNav1.7; [1]", "value": 16, "unit": "µM"}, {"measurement": "IC50", "setting": "hNav1.5; [1]", "value": 8.12, "unit": "µM"}, {"measurement": "IC50", "setting": "hNav1.3; [1]", "value": 5.42, "unit": "µM"}]}
{"smiles": "CC[C@H](C)[C@@H]1NC(=O)[C@@H]2CSSC[C@@H]3NC(=O)[C@H](C(C)C)NC(=O)[C@H](CC(C)C)NC(=O)[C@H](CC(N)=O)NC(=O)[C@@H]4CCCN4C(=O)[C@H](CCCNC(=N)N)NC(=O)[C@H](CSSC[C@H](NC(=O)[C@@H](N)CC(=O)O)C(=O)N[C@@H](CC(C)C)C(=O)NCC(=O)N[C@@H](Cc4ccccc4)C(=O)N[C@@H](CCSC)C(=O)N[C@@H](CCCNC(=N)N)C(=O)N[C@@H](CCCCN)C(=O)N2)NC(=O)[C@H](CSSC[C@@H](C(=O)N[C@@H](CCCCN)C(=O)N[C@@H](Cc2ccc(O)cc2)C(=O)N[C@H](C(=O)N[C@@H](Cc2ccccc2)C(N)=O)C(C)C)NC(=O)[C@H](Cc2c[nH]c4ccccc24)NC(=O)[C@H](CCCCN)NC(=O)[C@H](CC(C)C)NC(=O)[C@H]([C@@H](C)O)NC(=O)[C@H](CCCNC(=N)N)NC(=O)[C@H](CO)NC3=O)NC(=O)[C@H](CCCCN)NC(=O)[C@H](CC(=O)O)NC(=O)[C@H](CC(N)=O)NC(=O)[C@H](CC(=O)O)NC(=O)[C@@H]2CCCN2C1=O", "note": "[compound 111] (H-DCLGFMRKCIPDNDKCCRPNLVCSRTLKWCKYVF-NH2; disulfide 2-17, 9-23, 16-30)", "values": [{"measurement": "IC50", "setting": "hNav1.7; Table 23, use, […]", "value": 1.15, "unit": "µM"}, {"measurement": "IC50", "setting": "hNav1.5; Table 23, use, […]", "value": 6.19, "unit": "µM"}, {"measurement": "IC50", "setting": "hNav1.3; Table 23, use, […]", "value": 1.01, "unit": "µM"}]}
{"smiles": "C#CC[C@@H]1NC(=O)[C@H](CC(=O)O)NC(=O)[C@@H]2CCCN2C(=O)[C@H](CCC(=O)O)NC(=O)[C@@H]2CSSC[C@@H]3NC(=O)[C@H](C(C)C)NC(=O)[C@H](CC(C)C)NC(=O)[C@H](CC(N)=O)NC(=O)[C@@H]4CCCN4C(=O)[C@H](CCCNC(=N)N)NC(=O)[C@H](CSSC[C@H](NC(=O)[C@@H](N)CC(=O)O)C(=O)N[C@@H](CC(C)C)C(=O)NCC(=O)N[C@@H](C)C(=O)N[C@@H](Cc4ccccc4)C(=O)N[C@@H](CCCNC(=N)N)C(=O)N[C@@H](CCCCN)C(=O)N2)NC(=O)[C@H](CSSC[C@@H](C(=O)N[C@@H](CCCCN)C(=O)N[C@@H](Cc2ccc(O)cc2)C(=O)N[C@H](C(=O)N[C@@H](Cc2ccccc2)C(N)=O)C(C)C)NC(=O)[C@H](Cc2c[nH]c4ccccc24)NC(=O)[C@H](CCCNC(=N)N)NC(=O)[C@H](Cc2c[nH]cn2)NC(=O)[C@H](CC(C)C)NC(=O)[C@H](CCCNC(=N)N)NC(=O)[C@H](CO)NC3=O)NC(=O)[C@H](CCCCN)NC(=O)[C@H](CC(=O)O)NC1=O", "note": "[compound 798] (H-DCLGAFRKCEPD[Pra]DKCCRPNLVCSRLHRWCKYVF-NH2; disulfide 2-17, 9-23, 16-30)", "values": [{"measurement": "IC50", "setting": "hNav1.7; use-dependent block, hNav1.7", "value": 0.54, "unit": "µM"}, {"measurement": "IC50", "setting": "hNav1.5; use-dependent block, hNav1.5", "value": 32.2, "unit": "µM"}, {"measurement": "IC50", "setting": "hNav1.3; use-dependent block, hNav1.3", "value": 0.56, "unit": "µM"}]}
{"smiles": "CC[C@H](C)[C@@H]1NC(=O)[C@@H]2CSSC[C@@H]3NC(=O)[C@H](C(C)C)NC(=O)[C@H](CC(C)C)NC(=O)[C@H](CC(N)=O)NC(=O)[C@@H]4CCCN4C(=O)[C@H](CCCNC(=N)N)NC(=O)[C@H](CSSC[C@H](NC(=O)[C@@H](N)CC(=O)O)C(=O)N[C@@H](CC(C)C)C(=O)NCC(=O)N[C@@H](Cc4ccccc4)C(=O)N[C@@H](CC(N)=O)C(=O)N[C@@H](CCCNC(=N)N)C(=O)N[C@@H](CCCCN)C(=O)N2)NC(=O)[C@H](CSSC[C@@H](C(=O)N[C@@H](CCCCN)C(=O)N[C@@H](Cc2ccc(O)cc2)C(=O)N[C@H](C(=O)N[C@@H](Cc2ccccc2)C(N)=O)C(C)C)NC(=O)[C@H](Cc2c[nH]c4ccccc24)NC(=O)[C@H](CCCCN)NC(=O)[C@H](Cc2c[nH]cn2)NC(=O)[C@H]([C@@H](C)O)NC(=O)[C@H](CCCNC(=N)N)NC(=O)[C@H](CO)NC3=O)NC(=O)[C@H](CCCCN)NC(=O)[C@H](CC(=O)O)NC(=O)[C@H](CC(N)=O)NC(=O)[C@H](CC(=O)O)NC(=O)[C@@H]2CCCN2C1=O", "note": "[SEQ ID NO: 278] (H-DCLGFNRKCIPDNDKCCRPNLVCSRTHKWCKYVF-NH2; disulfide 2-17, 9-23, 16-30)", "values": [{"measurement": "IC50", "setting": "hNav1.7; [1]", "value": 6.89, "unit": "µM"}, {"measurement": "IC50", "setting": "hNav1.5; [1]", "value": 10.3, "unit": "µM"}, {"measurement": "IC50", "setting": "hNav1.3; [1]", "value": 6.28, "unit": "µM"}]}
